Experimental findings from patent US20230015532A1, “PHARMACEUTICAL COMPOSITION, FOR PREVENTING OR TREATING FIBROSIS, COMPRISING PHEOPHORBIDE COMPOUND AS ACTIVE INGREDIENT” (PAEAN BIOTECHNOLOGY INC., priority 2019, published 2023) are described below.

The test system of series [1] is Smad protein activity in Balb/c3T3 cells. In words: Smad-binding luciferase reporter assay of TGF-β signaling. The format is cell-based. Conditions: 0.06-5 μM together with 5 ng/ml TGF-β, 20 hours. The procedure:
A vector was prepared in which a gene obtained by repeating eight times the nucleotide sequence (5′-[…]-3′ SEQ ID NO: 1) to which the Smad gene can bind was linked to a gene encoding luciferase as a reporter gene. The above vector was transfected into Balb/c3T3 cells together with a vector in which the RSV promoter gene was linked to a gene encoding beta-galactosidase. After 6 hours, the negative control group was treated with nothing, the positive control group was treated with TGF-β at a concentration of 5 ng/ml, and the experimental groups were treated with pheophorbide a obtained in Preparation Example 2 at each concentration of 0.06 μM, 0.12 μM, 0.25 μM, 0.5 μM, 1 μM, and 5 μM, together with 5 ng/ml of TGF-β.
The cells were then cultured in 5% CO2 incubator at 37° C. for 20 hours, and then luciferase analysis was performed.
For orientation: Reporter assays use an easily measured gene product as a stand-in for the process of interest.

For series [2], the system named is phosphorylated Smad3 and phosphorylated ERK in CCD8-Lu cells. In words: Western blotting of phosphorylated proteins of TGF-β signaling (Experimental Example 5). It is filed as cell-based, human. The note with it: 5 μM, 6 hours after 5 ng/ml TGF-β. The method, then: A cell-based assay experiment was performed using Western blotting assay to determine the effect of pheophorbide a on phosphorylation in the TGF-β signaling pathway. CCD8-Lu cells, which are human lung-derived fibroblasts, were cultured in the DMEM medium containing 10% FBS. About 2×10^5 cells were then inoculated into a 6 well plate, cultured for 24 hours, and subjected to the deficient condition in the DMEM medium from which FBS was removed for about 24 hours. 24 hours later, following the treatment with TGF-β at a concentration of 5 ng/ml, fibrosis of cells was induced for 6 hours. Then, the cells were treated with pheophorbide a obtained in Preparation Example 2 or the therapeutic agent for pulmonary fibrosis and further cultured for 18 hours. Then, the negative control group was treated with nothing, the positive control group was treated with TGF-β alone at a concentration of 5 ng/ml, and the experimental groups were treated with TGF-β at a concentration of 5 ng/ml and 6 hours later, with pheophorbide a at a concentration of 5 μM and nintedanib at a concentration of 1 μM, respectively. […] The separated supernatant was obtained and transferred to a new microtube and then the protein was quantified using a bicinchoninic acid assay (BCA assay) protein quantitative kit. […]
(A western blot detects proteins with antibodies after separation by electrophoresis.)

For series [3], the system named is pulmonary fibrosis induced by bleomycin (BLM) in C57BL/6NCr10ri mice. Nature of the series: Bleomycin-induced pulmonary fibrosis model mice. The format is in vivo. The note with it: oral once daily Day 1 to Day 21, 1.25-80 mg/kg. The procedure:
Mice were weighed and divided into total seven groups, and then administered intratracheally with sterile physiological saline in the vehicle control group and with BLM in the other groups than the vehicle control group on Day 1 to induce pulmonary fibrosis. Then, from Day 1 to Day 21, DMSO (sigma D2650-5X) devoid of the effective substance was administered to the vehicle control group and the negative control group (fibrosis control).
In addition, T1 to T4 groups and the positive control group were orally administered with the effective substance (pheophorbide a) and nintedanib, respectively, once daily. […]
Following the administration, the death and the moribund status were observed once daily, and general symptoms such as appearance and behavioral changes were observed twice daily. […] Body weight was measured 7 times in total (Day 1, 2, 4, 8, 11, 15 and 18) during the administration and once on the autopsy day.
On Day 22, the animals were euthanized by isoflurane inhalation and subjected to autopsy. […] The organ weight ratio of the extracted lungs was calculated by using the following calculation formula. […]
The results of the experiments were expressed by the mean and the standard deviation and statistically analyzed using Pristima System or Statistical Analysis System (SAS/STAT).

Series [4] has as its system CCD8-Lu cells and LL-29 cells. Nature of the series: Cytotoxicity of pheophorbide a (WST-1 cell survival). It is filed as cell-based, human. The note with it: 72 hours, CCD8-Lu and LL-29. The method, then: In order to confirm the cytotoxicity of pheophorbide a obtained in Preparation Example 2, CCD8-Lu cells and LL-29 cells which are human lung-derived fibroblasts, were used. CCD8-Lu cells and LL-29 cells were inoculated into 96 well plates with […] cells/well and stabilized while culturing for 24 hours in a wet CO2 incubator at 37° C. The cultured cells were treated with different concentrations of pheophorbide a obtained in Preparation Example 2 and, 72 hours later, treated with the WST-1 reagent. After 1 hour, the survival rate of the cells was measured using a microplate reader (EZ Read 400, biochrom, UK) to determine the absorbance at 450 nm, and the toxicity was evaluated.
The cell survival rate as a result of the experiment is shown in FIG. 3 by expressing the percentage of the absorbance of the sample-treated group relative to the control group.
A general note: Tetrazolium dyes change colour on reduction, which living cells bring about.

In the case of pheophorbide a, the “activity of Smad protein increased by TGF-β (luciferase)” value in series [1] was “decreased by pheophorbide a in a concentration-dependent manner”. Moreover, the “expression of phosphorylated Smad3 and phosphorylated ERK induced by TGF-β” value in series [2] is given as “remarkably inhibited”. The “anti-fibrotic effect as compared with the negative control group” value in series [3] (BLM 1.8 mg/kg intratracheal, mice) is listed as “anti-fibrotic effect”. The “anti-fibrotic effect as compared with the positive control group (nintedanib)” value in series [3] (nintedanib 60 mg/kg, BLM mice) is given as “significant anti-fibrotic effect”. In addition, the cytotoxicity entry was “about 25%” in series [4] (concentration of 5 μM), “about 75%” in series [4] (concentration of 10 μM) and “little cytotoxicity” in series [4] (up to a concentration of 2.5 μM).
